{"source": "patent US20170242015A1", "about": "“MAP3K8 AS A MARKER FOR SELECTING A PATIENT AFFECTED WITH AN OVARIAN CANCER FOR A TREATMENT WITH A MEK INHIBITOR” (INSTITUT CURIE, priority 2014, published 2017)", "key": {"high-MAP3K8 PDX model [1]": {"tested_on": "high-MAP3K8 PDX model", "test": "Lung metastasis detection in PDX by RT-qPCR for human Alu sequences", "type": "in vivo, mouse", "settings": "compared to low-MAP3K8 PDX model"}, "high-MAP3K8 PDX model [2]": {"tested_on": "high-MAP3K8 PDX model", "test": "Efficacy study in patient-derived xenograft, high-MAP3K8 PDX model", "type": "in vivo, mouse", "settings": "for tumor growth inhibition (TGI): per os 5 times a week for 4 weeks, AZD6244 50 mg/kg, MEK162 25 mg/kg; for tumor growth: treated vs untreated", "description": "(§1) Grafting experiments were performed by subcutaneous injection of 2.7×10^6 exponentially growing SKOV3 stable cell lines into each flank of 6-week-old female Swiss nude mice (at least five mice per group). Patient derived xenograft (PDX) models of EOC tumors were established at the Curie Institute with patient consent (Paris, France). For efficacy studies in PDX models, at least 8 mice per group were treated per os 5 times a week for 4 weeks either left untreated (Ctrl) or treated with the following MEK inhibitors AZD6244 at 50 mg/kg, (Selleckchem #S100817) or MEK162 25 mg/kg (Active Biochem #A-1128) both diluted into 2% DMSO, 10% 2-Hydroxypropyl-beta-cyclodextrin, 5% glucose in PBS. Tumor growth was evaluated by measuring two perpendicular diameters of tumors with a caliper twice a week. Individual tumor volumes were calculated as (V)=a×b2/2, with a being the major diameter, and b the minor one. For each tumor, V was reported to the initial volume as relative tumor volume (RTV). Means (and s.e.m) of RTV in the same treatment group were calculated, and growth curves were established as a function of time. The tumor growth inhibition (TGI) was calculated using the following formula: 100−100×([…]). Curie Institute ethical committee approved all experiments."}, "low-MAP3K8 PDX model": {"tested_on": "low-MAP3K8 PDX model", "test": "Efficacy study in patient-derived xenograft, low-MAP3K8 PDX model", "type": "in vivo, mouse", "settings": "for tumor growth inhibition (TGI): per os 5 times a week for 4 weeks, AZD6244 50 mg/kg, MEK162 25 mg/kg; for tumor growth: treated vs untreated", "description": "as §1"}, "SKOV3 cells [3]": {"tested_on": "SKOV3 cells", "test": "Growth kinetics of SKOV3 cells (living cells counted by trypan blue exclusion)", "type": "cell-based, human", "description": "(§2) The human epithelial ovarian cancer cell line SKOV3 and the SKOV3 stable cell lines were propagated in DMEM (Gibco) supplemented with 10% fetal bovine serum (FBS, PAA), penicillin and streptomycin (Gibco). 1 μg/mL puromycin was added only for SKOV3 stable cell lines. For SKOV3 stable cell lines, 10% serum stimulation was performed after overnight serum starvation for the indicated times. SKOV3 cells were plated and immediately treated or not with 5 μM MAP3K8 kinase inhibitor (KI, Calbiochem #616373) for the indicated times. The number of living cells was measured by trypan blue exclusion using Vi-Cell analyzer (Beckman Coulter). Cell cycle distributions were performed on ethanol-fixed cells, stained with propidium iodide and analyzed by flow cytometry. Flow cytometry data were acquired using CellQuest Pro (Becton Dickinson) software on the FACS LSRII machine (Becton Dickinson) and were analyzed using ModfitLT (Verity) software."}, "SKOV3 cells [4]": {"tested_on": "SKOV3 cells", "test": "Cell cycle analysis by flow cytometry (propidium iodide)", "type": "cell-based, human", "settings": "KI treatment vs untreated control cells", "description": "as §2"}, "p38MAPK": {"tested_on": "p38MAPK", "test": "Western blot of serum-induced p38MAPK phosphorylation in SKOV3 cells", "type": "cell-based, human", "settings": "SKOV3, KI 5 μM or 10 μM 1 h prior to 15 min 10% serum stimulation", "description": "(§3) After overnight serum starvation (—FBS), SKOV3 cells and SKOV3 stable cell lines were stimulated with 10% serum for 15 minutes (+FBS). SKOV3 cell line was treated or not with 5 μM or 10 μM MAP3K8 kinase inhibitor as indicated (KI_5 μM or KI_10 μM) for 1 h prior to serum stimulation. After treatment, cells were washed once with cold PBS and scraped on ice with lysis buffer (50 mM Tris-HCl pH 7.5, 1 mM EDTA, 1 mM EGTA, 1% triton X-100, 1 mM Na3VO4, 50mMNaF, 0.27M sucrose, 0.1% β-mercaptoethanol) supplemented with EDTA-free protease inhibitor cocktail tablet (Roche #1836170). For immunoprecipitation (IP), 4×10^6 SKOV3 cells were plated into 10 cm petri dish. […] The protein concentration of the supernatant was determined using the Bio-Rad Dc Protein Assay Kit according to the manufacturer's instructions (Bio-Rad Laboratories). […]\n(§4) For western blot analysis, samples were loaded onto homemade or precast 10% polyacrylamide gels (Invitrogen). […] Specific binding of antibodies was detected using appropriate peroxidase-conjugated secondary antibodies (Jackson ImmunoResearch Laboratories #115-035-003 and 115-035-045), and was visualized by enhanced chemiluminescence detection (Western Lightning® Plus-ECL, PerkinElmer). […]"}, "MEK": {"tested_on": "MEK", "test": "Western blot of serum-induced MEK phosphorylation in SKOV3 cells", "type": "cell-based, human", "settings": "SKOV3, KI 5 μM or 10 μM 1 h prior to 15 min 10% serum stimulation", "description": "as §3, §4"}, "JNK": {"tested_on": "JNK", "test": "Western blot of JNK phosphorylation in SKOV3 cells", "type": "cell-based, human", "settings": "SKOV3, KI 5 μM or 10 μM 1 h prior to 15 min 10% serum stimulation; not significant", "description": "as §3, §4"}, "SKOV3 cells [5]": {"tested_on": "SKOV3 cells", "test": "Transwell BioCoat Matrigel invasion assay", "type": "cell-based, human", "settings": "KI treatment, 24 h", "description": "(§5) 12 wells cell culture insert, and 24 wells Transwell BioCoat™ growth factor reduced Matrigel™ invasion chambers (BD Biosciences, […]) were used for migration and invasion assays, respectively. After overnight serum starvation, cells were plated to the upper side of the Transwell device, at least in duplicates, in serum free medium, while the lower well contained regular 10% FBS culture medium in order to create an FBS gradient. The inventors plated 80,000 cells for migration assay and ended the experiment 5 h later. For invasion assay, the inventors plated 50,000 and stopped the experiment 24 h later. At the end of the experiment, the remaining cells in the upper side of the Transwell device were removed. Migrating and invading cells at the bottom side of the Transwell device were fixed and stained with crystal violet for 30 minutes and then counted in the central field (×2.5 objective, Zeiss Axioplan microscope, AxioCamERc 5s)."}, "ERK": {"tested_on": "ERK", "test": "Western blot of serum-induced ERK phosphorylation in SKOV3 cells", "type": "cell-based, human", "settings": "SKOV3, KI 5 μM or 10 μM 1 h prior to 15 min 10% serum stimulation", "description": "as §3, §4"}, "NF-κB": {"tested_on": "NF-κB", "test": "Western blot of serum-induced NF-κB phosphorylation in SKOV3 cells", "type": "cell-based, human", "settings": "SKOV3, KI 5 μM or 10 μM 1 h prior to 15 min 10% serum stimulation", "description": "as §3, §4"}, "SKOV3 cells [6]": {"tested_on": "SKOV3 cells", "test": "Transwell migration assay", "type": "cell-based, human", "settings": "KI treatment, 5 h", "description": "as §5"}}, "data": [{"smiles": "Cn1cnc2c(F)c(Nc3ccc(Br)cc3Cl)c(C(=O)NOCCO)cc21", "note": "[AZD6244]", "values": [{"measurement": "lung metastatic incidence", "setting": "high-MAP3K8 PDX model [1]", "result": "significantly reduced"}, {"measurement": "tumor growth inhibition (TGI)", "setting": "high-MAP3K8 PDX model [2]", "result": "~60", "unit": "%"}, {"measurement": "tumor growth", "setting": "high-MAP3K8 PDX model [2]", "result": "markedly reduced tumor growth"}, {"measurement": "tumor growth inhibition (TGI)", "setting": "low-MAP3K8 PDX model", "result": 22, "unit": "%"}, {"measurement": "tumor growth", "setting": "low-MAP3K8 PDX model", "result": "much less impact"}]}, {"smiles": "N#Cc1cnc2cnc(NCc3cccnc3)cc2c1Nc1ccc(F)c(Cl)c1", "note": "[KI]", "values": [{"measurement": "total number of cells", "setting": "SKOV3 cells [3]; 5 μM KI vs untreated", "result": "reduced the total number of cells"}, {"measurement": "cell viability", "setting": "SKOV3 cells [3]; KI treatment", "result": "without any impact on cell viability"}, {"measurement": "cell doubling time", "setting": "SKOV3 cells [3]; KI treatment vs untreated", "result": "increase in cell doubling time"}, {"measurement": "percentage of cells in G1 phase", "setting": "SKOV3 cells [4]", "result": "significant increase"}, {"measurement": "serum-induced p38MAPK phosphorylation", "setting": "p38MAPK", "result": "not affected"}, {"measurement": "serum-induced MEK phosphorylation", "setting": "MEK", "result": "significantly reduced"}, {"measurement": "JNK phosphorylation", "setting": "JNK", "result": "slight decrease"}, {"measurement": "cell invasion", "setting": "SKOV3 cells [5]", "result": "inhibited"}, {"measurement": "serum-induced ERK phosphorylation", "setting": "ERK", "result": "significantly reduced"}, {"measurement": "serum-induced NF-κB phosphorylation", "setting": "NF-κB", "result": "not affected"}, {"measurement": "cell migration", "setting": "SKOV3 cells [6]", "result": "significantly reduced cell migration"}]}, {"smiles": "Cn1cnc2c(F)c(Nc3ccc(Br)cc3F)c(C(=O)NOCCO)cc21", "note": "[MEK162]", "values": [{"measurement": "lung metastatic incidence", "setting": "high-MAP3K8 PDX model [1]", "result": "significantly reduced"}, {"measurement": "tumor growth inhibition (TGI)", "setting": "high-MAP3K8 PDX model [2]", "result": "~60", "unit": "%"}, {"measurement": "tumor growth", "setting": "high-MAP3K8 PDX model [2]", "result": "markedly reduced tumor growth"}, {"measurement": "tumor growth inhibition (TGI)", "setting": "low-MAP3K8 PDX model", "result": 22, "unit": "%"}, {"measurement": "tumor growth", "setting": "low-MAP3K8 PDX model", "result": "much less impact"}]}]}
